Source: patent US20230081426A1, “COMPOUNDS AND METHODS FOR KRAS MODULATION AND INDICATIONS THEREFOR” (Plexxikon Inc., priority 2020, published 2023)

Assays:
[1] = target: T1, G12C-mutant human KRAS (amino acid residues 1-188) (Homo sapiens, UniProt P01116, G12C); assay: KRAS Binding Disruption Assay (AlphaScreen; biotinylated KRpep-2d analogue or RAF1-RBD), G12C; settings: geometric mean, read-out: KRAS GMean IC50 (uM) MUTATION: G12C
T1 construct: G12D or G12C-mutant human KRAS (amino acid residues 1-188) with FLAG tag; made in house; host or cells: E. coli
T1 sequence (P01116 1-188 isoform P01116-2 G12C): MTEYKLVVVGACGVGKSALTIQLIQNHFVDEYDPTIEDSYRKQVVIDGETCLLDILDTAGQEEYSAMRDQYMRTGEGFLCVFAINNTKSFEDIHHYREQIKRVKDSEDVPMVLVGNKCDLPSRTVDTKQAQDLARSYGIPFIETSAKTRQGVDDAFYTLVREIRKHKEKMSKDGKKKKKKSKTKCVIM
Method in brief: (§1)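 Mutant KRAS (5-20 nM) incubated 1 h at 25° C with test compound and 5-20 nM biotinylated KRpep-2d analogue or RAF1-RBD in 20 mM HEPES pH 7.5, 100 mM NaCl, 5 mM MgCl2, 0.01% Tween-20, 0.01% BSA.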

[2] = target: T2, G12D-mutant human KRAS (amino acid residues 1-188) (Homo sapiens, UniProt P01116, G12D); assay: KRAS Binding Disruption Assay (AlphaScreen; biotinylated KRpep-2d analogue or RAF1-RBD), G12D; settings: KRAS G12D; geometric mean; read-out: KRAS GMean IC50 (uM) MUTATION: G12D
T2 construct: G12D or G12C-mutant human KRAS (amino acid residues 1-188) with FLAG tag; made in house; host or cells: E. coli
T2 sequence (P01116 1-188 isoform P01116-2 G12D): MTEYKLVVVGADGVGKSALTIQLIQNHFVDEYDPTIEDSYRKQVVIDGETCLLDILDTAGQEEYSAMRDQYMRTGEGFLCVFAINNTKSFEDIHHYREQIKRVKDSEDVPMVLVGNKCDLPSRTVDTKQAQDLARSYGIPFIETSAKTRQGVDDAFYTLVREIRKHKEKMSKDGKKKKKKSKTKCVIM
Method in brief: as §1

| Compound | IC50 [1] [µM] | IC50 [2] [µM] |
| --- | --- | --- |
| CC1(COc2nc(N3C[C@H]4CC[C@@H](C3)N4)c3ccc(-c4cc(O)cc5ccccc45)c(F)c3n2)COC1 [P-0785, 4-(4-((1R,5S)-3,8-diazabicyclo[3.2.1]octan-3-yl)-8-fluoro-2-((3-methyloxetan-3-yl)methoxy)quinazolin-7-yl)naphthalen-2-ol] | 100 to 1000 | 100 to 1000 |
| Oc1cc(-c2ccc3c(N4C[C@H]5CC[C@@H](C4)N5)nc(N4CCC(O)C4)nc3c2F)c2ccccc2c1 (stereo partly drawn) [P-0791, 1-(4-((1R,5S)-3,8-diazabicyclo[3.2.1]octan-3-yl)-8-fluoro-7-(3-hydroxynaphthalen-1-yl)quinazolin-2-yl)pyrrolidin-3-ol] | 100 to 1000 | 0.0001 to 10 |
| CC1(O)CN(c2nc(N3C[C@H]4CC[C@@H](C3)N4)c3ccc(-c4cc(O)cc5ccccc45)c(F)c3n2)C1 [P-0792, 1-(4-((1R,5S)-3,8-diazabicyclo[3.2.1]octan-3-yl)-8-fluoro-7-(3-hydroxynaphthalen-1-yl)quinazolin-2-yl)-3-methylazetidin-3-ol] | 10 to 100 | 0.0001 to 10 |
| NC1CN(c2nc(N3C[C@H]4CC[C@@H](C3)N4)c3ccc(-c4cc(O)cc5ccccc45)c(F)c3n2)C1 [P-0793, 4-(2-(3-aminoazetidin-1-yl)-4-((1R,5S)-3,8-diazabicyclo[3.2.1]octan-3-yl)-8-fluoroquinazolin-7-yl)naphthalen-2-ol] | 10 to 100 | 0.0001 to 10 |
| CN(C)C1CN(c2nc(N3C[C@H]4CC[C@@H](C3)N4)c3ccc(-c4cc(O)cc5ccccc45)c(F)c3n2)C1 [P-0794, 4-(4-((1R,5S)-3,8-diazabicyclo[3.2.1]octan-3-yl)-2-(3-(dimethylamino)azetidin-1-yl)-8-fluoroquinazolin-7-yl)naphthalen-2-ol] | 10 to 100 | 0.0001 to 10 |
| Cc1cccc2c(-c3c(F)cc4c(N5C[C@H]6CC[C@@H](C5)N6)nc(OC[C@@H]5CCCN5C)nc4c3F)c[nH]c12 [P-0795, 4-((1R,5S)-3,8-diazabicyclo[3.2.1]octan-3-yl)-6,8-difluoro-7-(7-methyl-1H-indol-3-yl)-2-(((S)-1-methylpyrrolidin-2-yl)methoxy)quinazoline] | 10 to 100 | 10 to 100 |
| CN1CCC[C@H]1COc1nc(N2C[C@H]3CC[C@@H](C2)N3)c2cc(F)c(-c3c[nH]c4cc(Cl)ccc34)c(F)c2n1 [P-0796, 4-((1R,5S)-3,8-diazabicyclo[3.2.1]octan-3-yl)-7-(6-chloro-1H-indol-3-yl)-6,8-difluoro-2-(((S)-1-methylpyrrolidin-2-yl)methoxy)quinazoline] | 100 to 1000 | 0.0001 to 10 |
| COc1cccc2[nH]cc(-c3c(F)cc4c(N5C[C@H]6CC[C@@H](C5)N6)nc(OC[C@@H]5CCCN5C)nc4c3F)c12 [P-0797, 4-((1R,5S)-3,8-diazabicyclo[3.2.1]octan-3-yl)-6,8-difluoro-7-(4-methoxy-1H-indol-3-yl)-2-(((S)-1-methylpyrrolidin-2-yl)methoxy)quinazoline] | 10 to 100 | 0.0001 to 10 |
| CN1CCC[C@H]1COc1nc(N2C[C@H]3CC[C@@H](C2)N3)c2cc(F)c(-c3c[nH]c4cc(C#N)ccc34)c(F)c2n1 [P-0798, 3-(4-((1R,5S)-3,8-diazabicyclo[3.2.1]octan-3-yl)-6,8-difluoro-2-(((S)-1-methylpyrrolidin-2-yl)methoxy)quinazolin-7-yl)-1H-indole-6-carbonitrile] | 100 to 1000 | 10 to 100 |
| COc1cccc2c(-c3c(F)cc4c(N5C[C@H]6CC[C@@H](C5)N6)nc(OC[C@@H]5CCCN5C)nc4c3F)c[nH]c12 [P-0799, 4-((1R,5S)-3,8-diazabicyclo[3.2.1]octan-3-yl)-6,8-difluoro-7-(7-methoxy-1H-indol-3-yl)-2-(((S)-1-methylpyrrolidin-2-yl)methoxy)quinazoline] | 100 to 1000 | 10 to 100 |
| CN1CCC[C@H]1COc1nc(N2C[C@H]3CC[C@@H](C2)N3)c2cc(F)c(-c3c[nH]c4c(Cl)cccc34)c(F)c2n1 [P-0800, 4-((1R,5S)-3,8-diazabicyclo[3.2.1]octan-3-yl)-7-(7-chloro-1H-indol-3-yl)-6,8-difluoro-2-(((S)-1-methylpyrrolidin-2-yl)methoxy)quinazoline] | 100 to 1000 | 10 to 100 |
| CN1CCC[C@H]1COc1nc(N2C[C@H]3CC[C@@H](C2)N3)c2cc(F)c(-c3cn(C)c4ccccc34)c(F)c2n1 [P-0801, 4-((1R,5S)-3,8-diazabicyclo[3.2.1]octan-3-yl)-6,8-difluoro-7-(1-methyl-1H-indol-3-yl)-2-(((S)-1-methylpyrrolidin-2-yl)methoxy)quinazoline] | 100 to 1000 | 10 to 100 |
| O=C1CCC(COc2nc(N3C[C@H]4CC[C@@H](C3)N4)c3ccc(-c4cc(O)cc5ccccc45)c(F)c3n2)N1 (stereo partly drawn) [P-0802, 5-(((4-((1R,5S)-3,8-diazabicyclo[3.2.1]octan-3-yl)-8-fluoro-7-(3-hydroxynaphthalen-1-yl)quinazolin-2-yl)oxy)methyl)pyrrolidin-2-one] | 10 to 100 | 0.0001 to 10 |
| Oc1cc(-c2ccc3c(N4C[C@H]5CC[C@@H](C4)N5)nc(OCc4ncco4)nc3c2F)c2ccccc2c1 [P-0804, 4-(4-((1R,5S)-3,8-diazabicyclo[3.2.1]octan-3-yl)-8-fluoro-2-(oxazol-2-ylmethoxy)quinazolin-7-yl)naphthalen-2-ol] | 10 to 100 | 0.0001 to 10 |
| Oc1cc(-c2ccc3c(N4C[C@H]5CC[C@@H](C4)N5)nc(OCC4CCOCC4)nc3c2F)c2ccccc2c1 [P-0805, 4-(4-((1R,5S)-3,8-diazabicyclo[3.2.1]octan-3-yl)-8-fluoro-2-((tetrahydro-2H-pyran-4-yl)methoxy)quinazolin-7-yl)naphthalen-2-ol] | 10 to 100 | 0.0001 to 10 |
| Fc1c(-c2c[nH]c3cccc(F)c23)c(Cl)cc2c(N3C[C@H]4CC[C@@H](C3)N4)nc(OCC34CCCN3CCC4)nc12 [P-0809, 4-((1R,5S)-3,8-diazabicyclo[3.2.1]octan-3-yl)-6-chloro-8-fluoro-7-(4-fluoro-1H-indol-3-yl)-2-((tetrahydro-1H-pyrrolizin-7a(5H)-yl)methoxy)quinazoline] | 10 to 100 | 0.0001 to 10 |

Second part, the compound after the results:

| IC50 [1] [µM] | IC50 [2] [µM] | Compound |
| --- | --- | --- |
| 0.0001 to 10 | 0.0001 to 10 | Cn1cncc1COc1nc(N2C[C@H]3CC[C@@H](C2)N3)c2ccc(-c3cc(O)cc4ccccc34)c(F)c2n1 [P-0786, 4-(4-((1R,5S)-3,8-diazabicyclo[3.2.1]octan-3-yl)-8-fluoro-2-((1-methyl-1H-imidazol-5-yl)methoxy)quinazolin-7-yl)naphthalen-2-ol] |
| 10 to 100 | 0.0001 to 10 | Oc1cc(-c2ccc3c(N4C[C@H]5CC[C@@H](C4)N5)nc(OC4CCC(O)CC4)nc3c2F)c2ccccc2c1 (stereo partly drawn) [P-0787, 4-(4-((1R,5S)-3,8-diazabicyclo[3.2.1]octan-3-yl)-8-fluoro-2-((4-hydroxycyclohexyl)oxy)quinazolin-7-yl)naphthalen-2-ol] |
| 0.0001 to 10 | 0.0001 to 10 | Fc1cc2c(N3C[C@H]4CC[C@@H](C3)N4)nc(OCC34CCCN3CCC4)nc2c(F)c1-c1c[nH]c2ccc(F)c(F)c12 [P-0788, 4-((1R,5S)-3,8-diazabicyclo[3.2.1]octan-3-yl)-7-(4,5-difluoro-1H-indol-3-yl)-6,8-difluoro-2-((tetrahydro-1H-pyrrolizin-7a(5H)-yl)methoxy)quinazoline] |
| 10 to 100 | 0.0001 to 10 | Fc1cc2[nH]cc(-c3c(F)cc4c(N5C[C@H]6CC[C@@H](C5)N6)nc(OCC56CCCN5CCC6)nc4c3F)c2cc1F [P-0789, 4-((1R,5S)-3,8-diazabicyclo[3.2.1]octan-3-yl)-7-(5,6-difluoro-1H-indol-3-yl)-6,8-difluoro-2-((tetrahydro-1H-pyrrolizin-7a(5H)-yl)methoxy)quinazoline] |
| 0.0001 to 10 | 0.0001 to 10 | Cc1cccc2[nH]cc(-c3c(F)cc4c(N5C[C@H]6CC[C@@H](C5)N6)nc(OCC56CCCN5CCC6)nc4c3F)c12 [P-0790, 4-((1R,5S)-3,8-diazabicyclo[3.2.1]octan-3-yl)-6,8-difluoro-7-(4-methyl-1H-indol-3-yl)-2-((tetrahydro-1H-pyrrolizin-7a(5H)-yl)methoxy)quinazoline] |
| 0.0001 to 10 | 0.0001 to 10 | Oc1cc(-c2ccc3c(N4C[C@H]5CC[C@@H](C4)N5)nc(OCCn4ccnc4)nc3c2F)c2ccccc2c1 [P-0803, 4-(2-(2-(1H-imidazol-1-yl)ethoxy)-4-((1R,5S)-3,8-diazabicyclo[3.2.1]octan-3-yl)-8-fluoroquinazolin-7-yl)naphthalen-2-ol] |
| 0.0001 to 10 | 0.0001 to 10 | Fc1cc(F)c2c(-c3c(F)cc4c(N5C[C@H]6CC[C@@H](C5)N6)nc(OCC56CCCN5CCC6)nc4c3F)c[nH]c2c1 [P-0806, 4-((1R,5S)-3,8-diazabicyclo[3.2.1]octan-3-yl)-7-(4,6-difluoro-1H-indol-3-yl)-6,8-difluoro-2-((tetrahydro-1H-pyrrolizin-7a(5H)-yl)methoxy)quinazoline] |
| 0.0001 to 10 | 0.0001 to 10 | O=C(CCn1ccnc1)N1[C@@H]2CC[C@H]1CN(c1nc(OCC34CCCN3CCC4)nc3c(F)c(-c4cc(O)cc5ccccc45)ccc13)C2 [P-0807, 1-((1R,5S)-3-(8-fluoro-7-(3-hydroxynaphthalen-1-yl)-2-((tetrahydro-1H-pyrrolizin-7a(5H)-yl)methoxy)quinazolin-4-yl)-3,8-diazabicyclo[3.2.1]octan-8-yl)-3-(1H-imidazol-1-yl)propan-1-one] |
| 0.0001 to 10 | 0.0001 to 10 | N#CCCC(=O)N1[C@@H]2CC[C@H]1CN(c1nc(OCC34CCCN3CCC4)nc3c(F)c(-c4cc(O)cc5ccccc45)ccc13)C2 [P-0808, 4-((1R,5S)-3-(8-fluoro-7-(3-hydroxynaphthalen-1-yl)-2-((tetrahydro-1H-pyrrolizin-7a(5H)-yl)methoxy)quinazolin-4-yl)-3,8-diazabicyclo[3.2.1]octan-8-yl)-4-oxobutanenitrile] |
